Measured values as given in PubChem BioAssay (NCI).
Several values for one entry are separate records, joined by “and”; a condition that tells them apart may be missing. Identical values can stand only once.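 Values below derive from 48-hour exposures of cells grown in 96-well plates, with endpoints linearly interpolated between the two concentrations bracketing the appropriate inhibition level. GI50 = concentration required for 50% inhibition of growth. TGI: total growth inhibition.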 *1 amine or outer side, *2 acyl side, *3 side chain or, on linkers, in order; H or OH if unused. Where a SMILES comes first, the peptide text is derived from it. Bridges are numbered along the chain shown (N, C = ends). Roman numbers before positions name the chains, in order. [ ]: non-standard residue; d: D form. Actinocin(9to1) = Cc1c2oc3c(C)ccc(C(=O)[*:1])c3nc-2c(C(=O)[*:2])c(N)c1=O; NMeV = CN[CH](C(=O)O)C(C)C; Sar = CNCC(=O)O

Assays:
Test in all cases: inhibition of tumour cell growth, NCI panel, 48 h
SW-620 colon = test system: SW-620 colon
SF-539 CNS = test system: SF-539 CNS
HCC-2998 colon = test system: HCC-2998 colon
MDA-N = test system: MDA-N
PC-3 prostate = test system: PC-3 prostate
CAKI-1 renal = test system: CAKI-1 renal
MDA-MB-231 breast = test system: MDA-MB-231 breast
HS 578T breast = test system: HS 578T breast
TK-10 renal = test system: TK-10 renal
BT-549 breast = test system: BT-549 breast

Compound | TGI (SW-620 colon) | TGI (SF-539 CNS) | TGI (HCC-2998 colon) | GI50 (MDA-N) | TGI (MDA-N) | GI50 (PC-3 prostate) | TGI (CAKI-1 renal) | TGI (MDA-MB-231 breast) | TGI (HS 578T breast) | GI50 (TK-10 renal) | TGI (TK-10 renal) | TGI (BT-549 breast) | GI50 (SF-539 CNS) | GI50 (CAKI-1 renal) | TGI (PC-3 prostate) | GI50 (MDA-MB-231 breast) | GI50 (HS 578T breast) | GI50 (SW-620 colon) | GI50 (BT-549 breast) | GI50 (HCC-2998 colon)
C#CC[C@@]12CC(=O)C[C@@H]1CCC1(C2)OCCO1 (tested in a mixture with another compound) | > 100 µM | > 100 µM | > 100 µM |  |  |  |  |  |  |  |  |  |  |  |  |  |  |  |  | 
CC(C)(C)c1ccc(C(O)CCCN2CCC(C(O)(c3ccccc3)c3ccccc3)CC2)cc1 (stereo not given) |  |  |  | 23.7 µM | 42.6 µM | 1.61 µM |  |  |  |  |  |  |  |  |  |  |  |  |  | 
Cc1c2oc3c(C)ccc(C(=O)NC4C(=O)NC(Cc5ccccc5)C(=O)N5CCCC5C(=O)N(C)CC(=O)N(C)C(C(C)C)C(=O)OC4C)c3nc-2c(C(=O)NC2C(=O)NC(Cc3ccccc3)C(=O)N3CCCC3C(=O)N(C)CC(=O)N(C)C(C(C)C)C(=O)OC2C)c(N)c1=O (stereo not given) (I: TFP[Sar][NMeV] / II: TFP[Sar][NMeV]; ester I:1-I:C, II:1-II:C; linker I:N-II:N via Actinocin(9to1); configuration not given here) |  |  |  |  | 0.0442 µM |  | 0.21 µM | 0.255 µM | 0.0472 µM and 0.055 µM | 0.0102 µM | 1.65 µM and 5.66 µM | 0.0135 µM | < 0.001 µM |  |  |  |  |  |  | 
CN1CCN(Cc2c[nH]c3c2C(=O)c2c(c(O)c4ccccc4c2O)C3=O)CC1 | 25 µM |  | 23.3 µM |  |  | 5.53 µM | 18.8 µM | 19.9 µM | 32.8 µM | 1.46 µM | 14.9 µM | 34.5 µM |  | 3.16 µM | 21.6 µM | 7.19 µM | 17 µM | 12.5 µM | 18.6 µM | 11.2 µM
